For 24 compounds, TGI and GI50 results are on record in PubChem BioAssay (NCI).

Common to all, as to experiment: DTP human tumour cell line panel, 48 h
The subject of experiment [1] is OVCAR-4 ovarian.
For experiment [2], the system named is HCT-15 colon.
The test system of experiment [3] is K-562 leukemia.
Experiment [4] deals with HL-60(TB) leukemia.
The subject of experiment [5] is SW-620 colon.
Experiment [6] concerns SF-295 CNS.
Experiment [7] deals with SK-MEL-28 melanoma.
In experiment [8] the test system is NCI-H522 lung.
The test system of experiment [9] is RPMI-8226 leukemia.
The subject of experiment [10] is HT29 colon.

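Compound exposure: 48 hours, 5 concentrations, 96-well plates. Here, GI50 denotes the concentration required for 50% inhibition of growth. TGI is the concentration that stops growth completely.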

By TGI is commonly meant the concentration giving total growth inhibition. The low end stands for more potent growth arrest, the high end for less potent growth arrest. Take `CCOC(=O)c1cc2cc([N+](=O)[O-])ccc2oc1=O`: the TGI in experiment [1], in experiment [2], in experiment [3], in [4], in experiment [5] and in experiment [6] was above 100 µM throughout. Besides, the concentration for total growth inhibition (TGI) in [7], in experiment [8], in experiment [9] and in [10] was above 100 µM in each case.
As usually defined, the GI50 is the concentration that inhibits growth by half. With `COc1cc(SC)ccc1C(=O)N1CCCC(C)C1` (stereo unspecified), the GI50 in [1] is 58.6 µM; in experiment [2], above 100 µM; in experiment [3] it was 58.7 µM; in experiment [4], 75.2 µM; in experiment [5] it was above 100 µM; in experiment [6] it was above 100 µM. The GI50 is above 100 µM in [7], above 100 µM in experiment [8], 69.2 µM in [9] and above 100 µM in experiment [10]. For the same compound, the TGI in experiment [1], in experiment [2], in [3], in [4], in [5] and in experiment [6] was above 100 µM each time. Besides, the TGI in experiment [7], in experiment [8], in experiment [9] and in [10] was above 100 µM throughout.
Take `C=C1C(=O)C23C(CC(OC(C)=O)C1[C@@H]2OC(C)=O)C1(C)C(OC(C)=O)CCC(C)(C)C1C[C@@H]3OC(C)=O` (stereo partly specified): the TGI in experiment [1] was determined as 3.41 µM; in [2], 2.52 µM; in experiment [3] it was 3.6 µM; in experiment [4], 2.51 µM; in experiment [5], 2.75 µM; in [6], 2.86 µM. Further, the TGI in experiment [7] was 3.3 µM; in experiment [8], 1.66 µM; in experiment [9] it was 4.68 µM; in experiment [10], 2.22 µM.
With `N#CC(/C(=N\NC(N)=S)C(=O)NC1C2CC3CC(C2)CC1C3)c1ccc(Cl)cc1` (stereo unspecified), the TGI in [1], in experiment [2], in experiment [3], in [4], in experiment [5] and in experiment [6] was above 100 µM in each case. Moreover, the total growth inhibition concentration (TGI) in experiment [7], in experiment [8], in experiment [9] and in experiment [10] was above 100 µM throughout.
As for `Cc1ccc(Nc2ccnc(Nc3cccc(C(N)=O)c3)n2)cc1O`, the GI50 was 6.19 µM in experiment [1]; 7.16 µM in experiment [2]; 1.34 µM in experiment [3]; 8.1 µM in experiment [4]; 9.62 µM in [5]; 7.69 µM in experiment [6]. Also, the GI50 in [7] was 11.2 µM; in [8], 3.22 µM; in experiment [9], above 25 µM; in experiment [10], 13.9 µM. Besides, the TGI in [1], in experiment [2], in [3], in experiment [4], in experiment [5] and in experiment [6] was above 25 µM each time. In addition, the TGI in experiment [7] is above 25 µM; in experiment [8] it was above 15.1 µM; in experiment [9] it was above 25 µM; in [10], above 25 µM.
For the compound `CCNC1=CC(=O)c2ncccc2C1=O`, the GI50 in [1] is 1.64 µM; in experiment [2], 0.999 µM; in experiment [3] it was 2.84 µM; in [4], 1.87 µM; in experiment [5], 1.75 µM; in [6] it was 1.23 µM. For the same compound, the GI50 in experiment [7] is 1.71 µM; in experiment [8] it was 1.79 µM; in experiment [9] it was 7.08 µM; in experiment [10] it was 2.82 µM. The TGI in [1] was 8.12 µM; in experiment [2], 3.22 µM; in [3], 12.5 µM; in experiment [4], 7.13 µM; in experiment [5] it was 4.3 µM; in [6], 2.56 µM. Also, the TGI in [7] turned out to be 3.52 µM; in [8] it was 4.23 µM; in experiment [9] it was 29.6 µM; in experiment [10], 6.59 µM.
Consider `Cc1[nH]nc(C(=O)N/N=C/c2cccs2)c1N=NN(C)C`, for which the TGI in experiment [1] is 31 µM; in experiment [2] it was 38.5 µM; in experiment [3], above 100 µM; in experiment [4], 89.4 µM; in experiment [5], 93.5 µM; in [6], 45.2 µM. In addition, the TGI turned out to be 29.5 µM in experiment [8], 89.7 µM in experiment [9] and 17.4 µM in [10].
Turning to `CN(C)/C(=N/C(=O)Nc1ccccc1)SCc1ccccc1`, the TGI in experiment [1], in experiment [2], in experiment [3], in experiment [4], in experiment [5] and in experiment [6] was above 100 µM each time. In addition, the TGI in [7], in [8], in [9] and in [10] was above 100 µM throughout.
As to `O=C1CCCc2c(O)ccc(O)c21`, the TGI in experiment [1] is above 100 µM; in experiment [2] it was above 100 µM; in experiment [3] it was above 100 µM; in experiment [4], 53.5 µM; in experiment [5], above 100 µM; in experiment [6], above 100 µM. Moreover, the TGI in experiment [7] is above 100 µM; in [8], 25.7 µM; in experiment [9], above 100 µM; in experiment [10], above 100 µM.
Consider `CC(C)c1cc2c(O)c(c1)Cc1cc(C(C)C)cc(c1O)Cc1cc(C(C)C)cc(c1O)Cc1cc(C(C)C)cc(c1O)Cc1cc(C(C)C)cc(c1O)Cc1cc(C(C)C)cc(c1O)C2`, for which the TGI in experiment [1], in experiment [2], in experiment [3], in experiment [4], in experiment [5] and in experiment [6] was above 100 µM in each case. The TGI in experiment [7], in experiment [8], in experiment [9] and in experiment [10] was above 100 µM each time.
On to `O=[N+]([O-])C(=C(c1ccccc1)c1ccccc1)[N+](=O)[O-]`, for which the TGI was 28.6 µM in experiment [1]; 32.6 µM in experiment [2]; above 100 µM in experiment [3]; 8.74 µM in [4]; 25.4 µM in [5]; 26.3 µM in experiment [6]. Further, the TGI in experiment [7] came to 20.1 µM; in experiment [8] it was 31.3 µM; in [9], 6.43 µM.
As to `c1ccc(CN(Cc2ccccn2)Cn2cccn2)nc1`, the total growth inhibition concentration (TGI) in [1] is above 100 µM; in experiment [2] it was 78.9 µM; in experiment [3], above 100 µM; in experiment [4], 55.8 µM; in experiment [5], above 100 µM; in experiment [6], above 100 µM. In addition, the TGI in experiment [7] was above 100 µM; in [8] it was above 100 µM; in experiment [9], 75.6 µM.
As for `Clc1ccc(CCN2CCOCC2)c(Cl)c1`, the TGI in [1], in [2], in experiment [3], in experiment [4], in experiment [6] and in experiment [7] was above 100 µM each time. The TGI in [8], in experiment [9] and in [10] was above 100 µM in each case.
For the compound `OCC1CC2CC1C1(C2)OCCO1` (stereo unspecified), the TGI in experiment [1], in [3], in experiment [4], in experiment [5], in experiment [6] and in [7] was above 100 µM in each case. Further, the TGI in [8], in experiment [9] and in [10] was above 100 µM throughout.
Regarding `CC1=C[C@H]2C[C@@]3(C)O[C@@H]([C@]4(C)CC[C@H]([C@@H](C)C(=O)O)OO4)CC3C(C)(C)[C@H]2CC1` (stereo partly specified), the TGI in [1] is 2.9 µM; in [4] it was 0.306 µM; in [5], 0.856 µM; in experiment [6], 3.44 µM; in experiment [7], 2.95 µM; in experiment [8] it was 0.832 µM. For the same compound, the TGI in experiment [10] was 1.77 µM.
`O=C(O)C1C2CC3CC2CC31` (stereo unspecified): the TGI in [1], in [2], in experiment [3], in experiment [4], in [5] and in [6] was above 100 µM each time. Besides, the TGI in experiment [7], in experiment [8] and in [9] was above 100 µM in each case.
Take `Cc1ccc(C)c(NC(=O)CCc2n[nH]c(=S)o2)c1`: the TGI in experiment [1], in experiment [2], in experiment [3], in [4], in [5] and in [6] was above 100 µM throughout. In addition, the TGI in [7], in experiment [8] and in [10] was above 100 µM throughout.
Take `COCCOCCOCCOCCOc1ccc2c(c1)C(=O)c1nc3ncccc3c(=O)n1-2`: the GI50 is 1.74 µM in experiment [1]; 1.21 µM in experiment [2]; 1.8 µM in experiment [4]; 1.15 µM in experiment [5]; 0.351 µM in experiment [6]; 0.765 µM in experiment [7]. Further, the figures for the GI50 in [8], in [9] and in experiment [10] were 1.67 µM, 1.86 µM and 1.47 µM, respectively. Also, the concentration for total growth inhibition (TGI) was 4.23 µM in [1]; 2.6 µM in experiment [2]; 5.05 µM in experiment [4]; 2.36 µM in experiment [5]; 1.4 µM in [6]; 2.03 µM in experiment [7]. For the same compound, the TGI was 3.3 µM in experiment [8], 4.94 µM in [9] and 3.7 µM in experiment [10].
Regarding `Cc1cc(Br)cc(C)c1NC(=O)C(=O)C(C(=O)c1ccc(Cl)c(Cl)c1)C1OC(=O)c2ccccc21` (stereo unspecified), the TGI in experiment [1], in [2], in [3], in experiment [4], in [5] and in experiment [6] was above 100 µM each time. For the same compound, the TGI in experiment [8], in [9] and in experiment [10] was above 100 µM each time.
Turning to `Cc1ccc(C)c2sc3cc(=O)ccc-3nc12`, the TGI in [1] is 48.1 µM; in experiment [2] it was above 100 µM; in [3], 79.6 µM; in experiment [4], 38.8 µM; in experiment [5], above 100 µM; in experiment [6], above 100 µM. Also, the TGI in experiment [7] was above 100 µM; in [8], 67.6 µM; in experiment [10], above 100 µM.
As to `O=C1CCCC2COc3ccc(O)c1c32` (stereo unspecified), the TGI in experiment [1], in [2], in experiment [3], in experiment [4], in experiment [6] and in experiment [7] was above 100 µM throughout. In addition, the TGI in experiment [8], in experiment [9] and in experiment [10] was above 100 µM in each case.
On to `O=C(O)CCN1C(=O)/C(=C/C(Cl)=C/c2ccccc2)SC1=S`, for which the GI50 in [1] was 4.79 µM; in experiment [2], 1.77 µM; in experiment [3] it was 1.88 µM; in experiment [4], 1.85 µM; in [5], 2.3 µM; in experiment [6], 2.7 µM. The values for the GI50 in experiment [7], in [8] and in experiment [10] were 2.11 µM, 2.07 µM and 2.57 µM, respectively. Moreover, the TGI was 18 µM in experiment [1]; 6.82 µM in [2]; 6.26 µM in experiment [3]; 7.64 µM in experiment [4]; 6.32 µM in experiment [5]; 8.05 µM in [6]. Further, the TGI in [7] was 5.33 µM; in experiment [8] it was 5.66 µM; in [10], 5.88 µM.
`Nc1nc(Cl)cc(NCCCCCCCCCCNc2cc(Cl)nc(N)n2)n1`: the TGI in experiment [1] was above 100 µM; in experiment [2] it was above 100 µM; in experiment [3], above 100 µM; in experiment [4] it was 34.6 µM; in experiment [5] it was above 100 µM; in [6], 46.4 µM. The TGI in experiment [8] is 11.5 µM; in experiment [9], 91.4 µM; in [10] it was above 100 µM.
For the compound `O=C1C=Cc2noc3cccc1c23`, the TGI amounted to 4.82 µM in experiment [1]; 10.8 µM in [2]; 9.65 µM in [3]; 3.67 µM in experiment [4]; 16.2 µM in experiment [5]; 32.8 µM in experiment [6]. The TGI in [7] was found to be 17.6 µM; in experiment [8], 3.04 µM; in experiment [10], 79.7 µM.
